Activity calls are given as the source filed them. No cut-off for these calls is given here.
How the values were obtained:
[1] = molecular target: T1, Sterol O-acyltransferase 2 (Homo sapiens) (UniProt O75908); assay: Inhibition of human ACAT2 expressed in CHO cells assessed as inhibition of [3H]cholesterol ester accumulation at 5 uM in presence of 0.1 mM [3H]oleate-conjugated BSA; type: cell-based
T1 sequence (whole entry): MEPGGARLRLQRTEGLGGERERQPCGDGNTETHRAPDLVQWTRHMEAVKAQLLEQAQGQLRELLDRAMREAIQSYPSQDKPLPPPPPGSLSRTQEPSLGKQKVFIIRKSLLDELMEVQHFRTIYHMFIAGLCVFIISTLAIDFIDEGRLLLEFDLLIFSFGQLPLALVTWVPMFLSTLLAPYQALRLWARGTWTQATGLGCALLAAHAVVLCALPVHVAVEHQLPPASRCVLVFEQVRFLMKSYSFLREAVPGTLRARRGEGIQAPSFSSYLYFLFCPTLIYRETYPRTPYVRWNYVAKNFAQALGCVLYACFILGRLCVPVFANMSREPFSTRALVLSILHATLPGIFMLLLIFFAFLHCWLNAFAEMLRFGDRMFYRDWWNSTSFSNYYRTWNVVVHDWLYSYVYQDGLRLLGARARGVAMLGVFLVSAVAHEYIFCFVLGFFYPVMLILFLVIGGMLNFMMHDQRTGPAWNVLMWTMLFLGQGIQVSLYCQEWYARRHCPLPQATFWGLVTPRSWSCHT

[2] = molecular target: T2, Sterol O-acyltransferase 1 (Homo sapiens) (UniProt P35610); assay: Inhibition of human ACAT1 expressed in CHO cells at 5 uM using [14C]oleoyl-CoA as substrate; type: cell-based
T2 sequence (whole entry): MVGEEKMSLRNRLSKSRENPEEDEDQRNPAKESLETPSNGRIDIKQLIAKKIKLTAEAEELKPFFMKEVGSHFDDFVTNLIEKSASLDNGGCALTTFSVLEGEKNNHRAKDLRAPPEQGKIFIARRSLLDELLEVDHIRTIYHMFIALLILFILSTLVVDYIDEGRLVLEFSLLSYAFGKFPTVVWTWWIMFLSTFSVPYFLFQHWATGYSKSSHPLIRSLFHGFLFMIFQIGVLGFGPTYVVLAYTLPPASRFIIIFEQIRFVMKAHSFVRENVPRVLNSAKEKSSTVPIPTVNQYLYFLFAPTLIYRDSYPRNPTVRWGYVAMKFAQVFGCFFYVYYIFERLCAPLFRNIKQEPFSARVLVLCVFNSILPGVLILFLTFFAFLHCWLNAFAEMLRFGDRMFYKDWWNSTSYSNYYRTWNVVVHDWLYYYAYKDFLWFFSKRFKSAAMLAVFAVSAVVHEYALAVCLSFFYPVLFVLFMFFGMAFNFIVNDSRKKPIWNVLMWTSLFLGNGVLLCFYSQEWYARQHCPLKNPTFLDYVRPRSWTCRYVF

[3] = Cytotoxicity against human MDM cells at 5 uM after 24 hrs; type: cell-based
[4] = molecular target: T1, Sterol O-acyltransferase 2 (Homo sapiens); assay: Inhibition of human ACAT2 expressed in CHO cells at 5 uM using [14C]oleoyl-CoA as substrate; type: cell-based
[5] = molecular target: T2, Sterol O-acyltransferase 1 (Homo sapiens); assay: Inhibition of human ACAT1 expressed in CHO cells assessed as inhibition of [3H]cholesterol ester accumulation at 5 uM in presence of 0.1 mM [3H]oleate-conjugated BSA; type: cell-based
[6] = tested on: MDM; assay: Inhibition of ACAT in human MDM cells assessed as inhibition of foam cell formation by measuring acetylated LDL-induced [3H]cholesterol ester accumulation at 5 uM after 24 hrs in presence of 0.1 mM [3H]oleate; type: cell-based
[7] = tested on: MDM; assay: Effect on phospholipid accumulation in human MDM cells at 5 uM after 24 hrs in presence of 50 ug/ml acetylated LDL and 0.1 mM [3H]oleate; type: functional, cell-based
[8] = tested on: MDM; assay: Effect on CD36 expression in human MDM cells at 5 uM for 24 hrs by western blot analysis; type: functional, cell-based
[9] = tested on: MDM; assay: Effect on triacylglycerol accumulation in human MDM cells at 5 uM after 24 hrs in presence of 50 ug/ml acetylated LDL and 0.1 mM [3H]oleate; type: functional, cell-based
[10] = tested on: MDM; assay: Inhibition of human ACAT in MDM cells microsomal fraction assessed as inhibition of cholesteryl [14C]oleate formation at 5 uM for 15 mins in presence of [14C]oleoyl-CoA; type: cell-based
[11] = tested on: MDM; assay: Effect on SR-BI expression in human MDM cells at 5 uM for 24 hrs by western blot analysis; type: functional, cell-based
[12] = tested on: MDM; assay: Effect on ACAT1 expression in human MDM cells at 5 uM for 24 hrs by western blot analysis; type: functional, cell-based
[13] = tested on: MDM; assay: Effect on SR-A expression in human MDM cells at 5 uM for 24 hrs by western blot analysis; type: functional, cell-based
[14] = tested on: MDM; assay: Effect on ACAT2 expression in human MDM cells at 5 uM for 24 hrs by western blot analysis; type: functional, cell-based
[15] = tested on: CHO; assay: Cytotoxicity against CHO cells at 5 uM; type: cell-based, Cricetulus griseus; settings: chinese hamster

Compound	inhibition [1]	inhibition [2]	inhibition [4]	inhibition [5]	Activity [3]	inhibition [6] [%]	Activity [7]	Activity [8]	Activity [9]	inhibition [10]	Activity [11]	Activity [12]	Activity [13]	Activity [14]	Activity [15]
O=C1NCCc2cc(Br)c(O)c(c2)Oc2ccc(cc2Br)CCNC(=O)/C(=N\O)Cc2cc(Br)c(O)c(c2)Oc2c(Br)cc(cc2Br)C/C1=N/O [BASTADIN 5]	inactive			inactive	Non-toxic	58									
O=C1NCCc2cc(Br)c(O)c(c2)Oc2c(Br)cc(cc2Br)CCNC(=O)/C(=N/O)Cc2cc(Br)c(O)c(c2)Oc2c(Br)cc(cc2Br)C/C1=N\O [BASTADIN 6]	87%	82%	89%	86%	Non-toxic	96	inactive	inactive	inactive	Active	inactive	inactive	inactive	inactive	Non-toxic
O=C1N/C=C/c2ccc(c(Br)c2)Oc2cc(cc(Br)c2O)CCNC(=O)/C(=N/O)Cc2ccc(c(Br)c2)Oc2cc(cc(Br)c2O)C/C1=N\O [BASTADIN 7]	inactive			inactive	Non-toxic	39									
O=C(NCCc1ccc(O)c(Br)c1)/C(Cc1ccc(O)c(Br)c1)=N\O [HEMIBASTADIN 1]	inactive			inactive	Non-toxic	5									

More lines, main results first:

inhibition [1]	inhibition [2]	inhibition [4]	inhibition [5]	Compound	Activity [3]	inhibition [6] [%]	Activity [7]	Activity [8]	Activity [9]	inhibition [10]	Activity [11]	Activity [12]	Activity [13]	Activity [14]	Activity [15]
inactive	inactive	inactive	inactive	O=C1NCCc2ccc(O)c(c2)Oc2ccc(cc2Br)CCNC(=O)/C(=N/O)Cc2cc(Br)c(O)c(c2)Oc2c(Br)cc(cc2Br)C/C1=N\O	Non-toxic	80									
inactive			inactive	O=C1N/C=C/c2ccc(c(Br)c2)Oc2cc(cc(Br)c2O)CCNC(=O)/C(=N/O)Cc2cc(Br)c(c(Br)c2)Oc2cc(cc(Br)c2O)C/C1=N\O [BASTADIN 4]	Non-toxic	36									
inactive	inactive	inactive	inactive	O=C1NCCc2cc(Br)c(O)c(c2)Oc2c(Br)cc(cc2Br)[C@H](O)CNC(=O)/C(=N/O)Cc2cc(Br)c(O)c(c2)Oc2ccc(cc2Br)C/C1=N\O [BASTADIN 12]	Non-toxic	80									
61%	61%	58%	57%	O=C1NCCc2ccc(O)c(c2)Oc2c(Br)cc(cc2Br)CCNC(=O)/C(=N/O)Cc2cc(Br)c(O)c(c2)Oc2c(Br)cc(cc2Br)C/C1=N\O [BASTADIN 16]	Non-toxic	88	inactive		inactive						Non-toxic

— ChEMBL document CHEMBL3632472, “Bastadins, brominated-tyrosine derivatives, suppress accumulation of cholesterol ester in macrophages” (Bioorg Med Chem Lett, 2015)
